The values below come from patent US6579882B2, “Cell adhesion-inhibiting antiinflammatory compounds” (Abbott Laboratories, priority 1998, dated 2003).

Data set [1] concerns E-Selectin. In words: CAM ELISA: E-selectin expression on TNF-stimulated HUVECs. It is filed as cell-based. Conditions: 1 μM compound, primary human umbilical vein endothelial cells, compound 24 hours, then TNF 5 ng/mL 6 hours; for inhibition at 1 µM: Homo sapiens, Endothelial cell. How it is done: (§1) Pooled primary human umbilical vein endothelial cells (HtVEC's) (Clonetics) between passages 3 and 7 were plated in 96-well plates (Costar), 100 μL/well, 5×10^4 cells/mL in Clonetics EBM/2% FBS/EGF/Bovine brain extract/gentamicin in the absence of hydrocortisone. The following day, compounds of the invention were added in 10 μL/well medium, and the plates were incubated at 37° C. 24 hours after compound addition, TNF (Gibco/BRL) in 10 μL/well medium was added to a final concentration of 5 ng/mL, and the cells were incubated an additional 6 hours at 37° C. Then media was removed, and the plates were washed once with D-PBS (Gibco/BRL) and treated with primary antibodies (Becton Dickinson, City), 100 μL/well in D-PBS/2% BSA (Sigma)/0.01% azide. Primary antibodies at an initial concentration of 1 mg/mL were used at the following dilutions: anti-ELAM-1, 1:2000, anti-ICAM-1, 1:2000 and anti-VACM-1, 1:3000. Plates were stored overnight at 4° C., washed 3 times with D-PBS, and treated with secondary antibody (Jackson Labs), 100 μL/well 1:8000 dilution HRP-conjugated donkey anti-mouse IgG(H+L) in D-PBS/2%BSA. Plates were incubated a minimum of 1 hour at room temperature, washed 3 times with D-PBS and treated with 100 μL of orhto-phenylene diamine-2 HCl reagent per well. Plates were developed approximately 15 minutes and neutralized with 100 μL/well 1N sulfuric acid. Absorbance was read at 490 nm.
For orientation: ELISA stands for enzyme-linked immunosorbent assay.

Data set [2] deals with ICAM-1. The data set is described as follows: CAM ELISA: ICAM-1 expression on TNF-stimulated HUVECs. It is filed as cell-based. The note with it: 1 μM compound, primary human umbilical vein endothelial cells, compound 24 hours, then TNF 5 ng/mL 6 hours; for inhibition at 1 µM: Homo sapiens, Endothelial cell. How it is done:
as §1

For data set [3], the system named is VCAM-1. The data set is described as follows: CAM ELISA: VCAM-1 expression on TNF-stimulated HUVECs. The class given is cell-based. The note with it: 1 μM compound, primary human umbilical vein endothelial cells, compound 24 hours, then TNF 5 ng/mL 6 hours; for inhibition at 1 µM: Homo sapiens, Endothelial cell. How it is done:
as §1

Regarding “4-(4-Chlorobenzoyl)-N-methylthieno[2,3-c]pyridine-2-carboxamide [Example 237I]”, in data set [1], the “CAM ELISA % Inhibition at 1 μM E-Selectin” value was 71%. In data set [2], the “CAM ELISA % Inhibition at 1 μM ICAM-1” value was 77%. In data set [3], the “CAM ELISA % Inhibition at 1 μM VCAM-1” value worked out at 54%.

In general, inhibition refers to the percentage by which the read-out fell short of the control. Regarding `Cc1ccc(Sc2cncc3sc(C(N)=O)cc23)cc1` [Example 19, 4-[(4-methylphenyl)thio]thieno[2,3-c]pyridine-2-carboxamide], the inhibition at 1 µM came out at 79% in data set [1], 67% in data set [2] and 41% in data set [3]. For `CC(C)(C)OC(=O)Nc1csc(-c2cc3c(Oc4ccc(Cl)cc4)cncc3s2)n1` [Example 294, tert-Butyl 2-[4-(4-Chlorophenoxy)thieno[2,3-c]pyridin-2-yl]-1,3-thiazol-4-ylcarbamate], in that order: 46%, 45% and 24%. For `CNC(=O)C(O)C(O)c1cc2c(Oc3ccc(Br)cc3)cncc2s1` (centres unmarked) [Example 261, Methyl 3-[4-(4-Bromophenoxy)thieno[2,3-c]pyridin-2-yl]-2,3-dihydroxypropanamide], in that order: 20%, 16% and 0%.

`Cc1ccc(Sc2c(/C=C/C(N)=O)sc3cnccc23)cc1` [Example 32]: the “CAM ELISA % Inhibition at 1 μM E-Selectin” value in data set [1] turned out to be 75%. Moreover, the “CAM ELISA % Inhibition at 1 μM ICAM-1” value in data set [2] amounted to 63%. In addition, the “CAM ELISA % Inhibition at 1 μM VCAM-1” value in data set [3] was 41%. The like results for `CNC(=O)c1nc2cncc(Oc3ccc(C)cc3)c2s1` [Example 325] were, in that order, 76%, 68% and 42%.

Take `Nc1nnc(-c2cc3c(Oc4ccc(Br)cc4)cncc3s2)o1` [Example 276, 5-[4-(4-Bromophenoxy)thieno[2,3-c]pyridin-2-yl]-1,3,4-oxadiazol-2-ylamine]: the inhibition at 1 µM in data set [1] turned out to be 66%; in data set [2] it was 61%; in data set [3], 52%.

As to `CNC(=O)c1cc2c(Oc3ccc(OC(F)(F)F)cc3)cncc2s1` [Example 227, N-Methyl-4-[4-(trifluoromethoxy)phenoxy]thieno[2,3-c]pyridine-2-carboxamide], the inhibition at 1 µM in data set [1] was determined as 61%; in data set [2], 62%; in data set [3], 44%.

Take `CN1CCN(C(=O)c2cc3c(Oc4ccc(Cl)cc4)cncc3s2)CC1` [Example 110, 1-[[4-(4-chlorophenoxy)thieno[2,3-c]pyridin-2-yl]carbonyl]-4-methylpiperazine]: the inhibition at 1 µM in data set [1] was found to be 44%; in data set [2] it was 48%; in data set [3], 39%.

What is called melting point is the temperature, or range, at which the solid turns liquid. For `NC(=O)c1cc2c(Oc3ccc(COC(=O)c4ccco4)cc3)cncc2s1` [Example 200, 4-[[2-(Aminocarbonyl)thieno[2,3-c]pyridin-4-yl]oxy}benzyl 2-furoate], the melting point lay in the range of 180 to 182 °C. In turn, `Nc1nnc(-c2cc3c(Oc4ccc(Cl)cc4)cncc3s2)[nH]1` [Example 277, 5-[4-(4-Chlorophenoxy)thieno[2,3-c]pyridin-2-yl]-4H-1,2,4-triazol-3-amine] displayed a melting point of more than 270 °C.

`CNC(=O)c1cc2c(Oc3cccc(F)c3F)cncc2s1` [Example 179, 4-(2,3-Difluorophenoxy)-N-methylthieno[2,3-c]pyridine-2-carboxamide] gave a melting point of 169 to 171 °C. In turn, `NC(=O)/C=C/c1cc2c(Oc3ccc(Cl)cc3)cncc2s1` [Example 92, (E)-3-[4-(4-chlorophenoxy)thieno[2,3-c]pyridin-2-yl]-2-propenamide] yielded a melting point of 176 to 178 °C. The molecule `Cc1ccc(Sc2cncc3sc(C=NOc4ccccc4)cc23)cc1` [Example 29, 4-[(4-methylphenyl)thio]thieno[2,3-c]pyridine-2-carboxaldehyde, O-phenyloxime] returned a melting point of 94 to 97 °C. For the molecule `CNC(=O)c1cc2c(Oc3ccc(COC4CCCCO4)cc3)cncc2s1` (centres unmarked) [Example 199, N-Methyl-4-{4-[(tetrahydro-2H-pyran-2-yloxy)methyl]phenoxy}thieno[2,3-c]pyridine-2-carboxamide], the melting point fell in the range of 195 to 196 °C. `Cc1ccc(Sc2cncc3sc(C(N)=O)cc23)cc1C` [Example 50, 4-[(3,4-dimethylphenyl)thio]thieno[2,3-c]pyridine-2-carboxamide] gave a melting point of 192 to 194 °C. Consider `Cc1ccc(Sc2cncc3sc(C(=O)c4ccccc4)cc23)cc1` [Example 34, 2-benzoyl-4-[(4-methylphenyl)thio]thieno[2,3-c]pyridine], for which the melting point was in the range of 103 to 107 °C. Same read-out and setting: with `C=Cc1ccc(Oc2cncc3sc(C(=O)N(C)C)cc23)cc1` [Example 185, N,N-Dimethyl-4-(4-vinylphenoxy)thieno[2,3-c]pyridine-2-carboxamide] the figure was 80 to 81 °C; with `CCC(=NO)c1cc2c(Oc3ccc(Cl)cc3)cncc2s1` [Example 246, 1-[4-(4-Chlorophenoxy)thieno[2,3-c]pyridin-2-yl]-1-propanone oxime], 195 to 198 °C (dec.); with `CSc1nnc(Sc2ncnc3c(C)csc23)s1` [Example 13, 7-methyl-4-[[5-(methylthio)-1,3,4-thiadiazol-2-yl]thio]thieno[3,2-d]pyrimidine], 163 to 166 °C. On to `Cc1ccc(Sc2cncc3sccc23)cc1` [Example 42, 4-[(4-methylphenyl)thio]thieno[2,3-c]pyridine], for which the melting point was 94 to 95 °C. `Clc1ccc(Oc2cncc3sc(-c4cccs4)cc23)cc1` [Example 292, 4-(4-Chlorophenoxy)-2-(2-thienyl)thieno[2,3-c]pyridine] displayed a melting point of 101 to 103 °C. As to `Cc1cccc(Sc2cncc3sc(C(N)=O)cc23)c1` [Example 49, 4-[(3-methylphenyl)thio]thieno[2,3-c]pyridine-2-carboxamide], the melting point was in the range of 171 to 173 °C.

As to `NC(=O)c1sc2cncc(Oc3ccc(Cl)cc3)c2c1N` [Example 131, 3-amino-4-(4-chlorophenoxy)thieno[2,3-c]pyridine-2-carboxamide], the melting point was in the range of 202 to 204 °C. `CCc1cc2c(Nc3nnc(C)s3)ncnc2s1` [Example 9, 6-ethyl-N-(5-methyl-1,3,4-thiadiazol-2-yl)thieno[2,3-d]pyrimidin-4-amine] had a melting point of 277 to 280 °C. Same read-out and setting: with `CNC(=O)c1cc2c(Oc3ccc(C(F)(F)F)cc3)cnc(Cl)c2s1` [Example 319, 7-Chloro-N-methyl-4-[4-(trifluoromethyl)phenoxy]thieno[2,3-c]pyridine-2-carboxamide] the figure was 178 to 179 °C; with `Cc1ccc(Sc2cncc3sc(C=NOCc4ccccc4)cc23)cc1` [Example 27, 4-[(4-methylphenyl)thio]thieno[2,3-c]pyridine-2-carboxaldehyde, O-(phenylmethyl)oxime], 127 to 133 °C; with `Cc1ccc(Sc2cncc3sc(C=NOCC(=O)O)cc23)cc1` [Example 28, 2-[[[4-[(4-methylphenyl)thio]thieno[2,3-c]pyridin-2-ylmethylene]amino]oxy]acetic acid], 227 to 230 °C. The molecule `NC(=O)CNC(=O)c1cc2c(Oc3ccc(Cl)cc3)cncc2s1` [Example 160, N-(2-Amino-2-oxoethyl)-4-(4-chlorophenoxy)thieno[2,3-c]pyridine-2-carboxamide] registered a melting point of 222 to 225 °C.

As to `Clc1ccc(Oc2cncc3sc(C4=NCCN4)cc23)cc1` [Example 298, 4-(4-Chlorophenoxy)-2-(4,5-dihydro-1H-imidazol-2-yl)thieno[2,3-c]pyridine], the melting point was 154 to 155 °C. `Cc1ccc(Sc2cncc3sc(C=NO)cc23)cc1` [Example 30, 4-[(4-methylphenyl)thio]thieno[2,3-c]pyridine-2-carboxaldehyde, oxime]: the melting point is 209 to 210 °C.

Consider `Cc1ccc(Sc2ccnc3sc(C(N)=O)cc23)cc1` [Example 132D, 4-[(4-methylphenyl)thio]thieno[2,3-b]pyridine-2-carboxamide], for which the melting point is 280 to 282 °C.

For `Oc1ccc(-c2cc3c(Oc4ccc(Cl)cc4)cncc3s2)cc1` [Example 270, 4-[4-(4-Chlorophenoxy)thieno[2,3-c]pyridin-2-yl]phenol], the melting point lay within 213 to 215 °C. `Nc1nc(-c2cc3c(Oc4ccc(Cl)cc4)cncc3s2)no1` (hydrate or solvate) [Example 289, 3-[4-(4-Chlorophenoxy)thieno[2,3-c]pyridin-2-yl]-1,2,4-oxadiazol-5-amine]: the melting point was 268 to 270 °C. Regarding `CNC(=O)c1cc2c(Oc3cccc(F)c3)cncc2s1` [Example 180, 4-(3-Fluorophenoxy)-N-methylthieno[2,3-c]pyridine-2-carboxamide], the melting point was 194 to 195 °C.
